Data reported in PubChem BioAssay AID2060489 (Molecular Pharmacology Branch, DTP, NCI, 2025).
Where “and” joins values, the source holds several entries; their conditions need not be identical. Equal values may be shown once.

Tested on: 922993-354-T-J3-PDC complex spheroids, viability
Experiment: Anticancer human tumor 922993-354-T-J3-PDC patient-derived endometrial carcinoma cell line growth inhibition [GQUAD]
Details: for viability, T/C: stronger effect = lower value
Description: DNA G-quadruplex Stabilizer Agents in Combinations in Complex Spheroids
A high-throughput screen of multi-cell type tumor spheroids was designed to identify active combinations of DNA G-quadruplex stabilizer agents and targeted small molecules. Complex spheroids include a stromal component modeled by human endothelial cells (HUVEC) and fibroblasts modeled by human mesenchymal stem cells (MSCs). The concentration ranges selected for each drug and investigational agent were based upon clinically achievable concentrations if the clinical Cmax of the agent was known.
Compounds. The drugs and investigational agents: pidnarulex (CX-5461; NSC782164), APTO-253 (NSC789042), BRACO-19 (NSC847499), peposertib (NSC802822), ceralasertib (NSC780249), elimusertib (NSC800525), camonsertib (NSC841442), AZD-1390 (NSC803789), olaparib (NSC753686), talazoparib (NSC767125), ART-558 (NSC835418), sotorasib (NSC818433), MRTX-1133 (NSC836407), SN-38 (NSC673596), topotecan (NSC609699), etoposide (NSC141540), doxorubicin (NSC123127), gemcitabine (NSC613327), 5-fluorouracil (NSC19893), paclitaxel (NSC125973), vemurafenib (NSC761431), panobinostat (NSC761190), R-306465 (JNJ-16241199; NSC773264), adavosertib (NSC754352), TP-3654 (NSC805149), carboplatin (NSC241240), KSQ-4279 (NSC840948), and staurosporine (NSC755774) were obtained from the National Cancer Institute (NCI) Developmental Therapeutics Program Chemical Repository (34). The FDA-approved anticancer drug set is available from the NCI Developmental Therapeutics Program. […] The stock solutions were prepared in dimethyl sulfoxide (DMSO, Sigma-Aldrich, St. Louis, MO, cat. D2650) at 800-fold the tested concentration and stored at -70 degrees C prior to their use. All drugs and investigational agents were tested over a range starting from a high concentration at or near the clinical Cmax and decreasing in half-log increments. If the clinical Cmax for an agent had not been determined, the highest concentration tested was 10 microM.
2.3 Cell Culture. All cells were maintained in an incubator at 37 degrees C and 5% CO2 with 95% humidity. The PDC lines were cultured according to standard operating procedures established by the NCI PDMR. All PDCs were thawed and cultured in Matrigel-coated flasks prepared with a working solution of 1X Ham's F-12 nutrient mix, without supplementation (Invitrogen, cat. 11765054), 100 U/mL penicillin-streptomycin (Invitrogen, cat. 15140122), and 2.5% Matrigel (Corning Inc., cat. 354248) for the first three passages. The 857933-349-R-J2-PDC line was cultured in 6C/Colon 1B media, which includes advanced DMEM/F-12 (Thermo Fisher Scientific, cat. 12634028), 10 mM HEPES (Thermo Fisher Scientific, cat. 15630080), 1X GlutaMAX supplement (Thermo Fisher Scientific, cat. 35050061), 0.1 mg/mL primocin (InvivoGen, cat. ant-pm-2), 10% defined fetal bovine serum, heat inactivated (HyClone Laboratories Inc., cat. SH30070.03HI), 50% L-WRN conditioned media (ATCC, cat. CRL-3276), 1.25 mM N-Acetyl-L-cysteine (Sigma-Aldrich, cat. A9165), 10 mM nicotinamide (Sigma-Aldrich, cat. N0636), 1X B-27 supplement (Thermo Fisher Scientific, cat. 17504044), 1X N-2 supplement (Thermo Fisher Scientific, cat. 17502048), 10 microM Y-27632 dihydrochloride (Tocris Bioscience, cat. 1254), and 50 ng/mL human EGF recombinant protein (Thermo Fisher Scientific, cat. PHG0311). The 485176-168-R4-J1-PDC line was cultured in Panc media, which includes all 6C/Colon 1B media components plus 100 ng/mL human FGF-10 (Thermo Fisher Scientific, cat. 100-26), 500 nM SB-431542 (Selleckchem, cat. S1067), and gastrin (Tocris, cat. 3006).
[…]
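Note: spheroids exposed to compounds for seven days.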
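Throughout, for viability, T/C: 100% = DMSO vehicle control viability.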

With `COc1ccc([C@@H](O)c2cc(-c3ncnc4cc(N5CCOCC5)ccc34)c(F)cc2Cl)nn1` + Cc1[nH]c2ccc(F)cc2c1-c1nc2c3cccnc3c3ncccc3c2[nH]1 the IC50 (curve of first compound, second compound 0.0316 µM) was 9.14 µM, the IC50 (curve of first compound, second compound 0.1 µM) was > 10 µM and the IC50 (curve of first compound, second compound 0.316 µM) was 8.51 µM. The IC50 (curve of first compound, second compound 1 µM) was > 10 µM, the IC50 (curve of first compound, second compound 3.16 µM) was > 10 µM and the IC50 (curve of first compound, second compound 10 µM) was > 10 µM. The viability, T/C (second compound 0.0316 µM, first compound 0.0316 µM) was 107%, the viability, T/C (second compound 0.0316 µM, first compound 0.1 µM) was 112% and the viability, T/C (second compound 0.0316 µM, first compound 0.316 µM) was 92.9%. It also gave a viability, T/C (second compound 0.0316 µM, first compound 1 µM) of 90%, a viability, T/C (second compound 0.0316 µM, first compound 3.16 µM) of 95.8% and a viability, T/C (second compound 0.0316 µM, first compound 10 µM) of 45.7%. The viability, T/C (second compound 0.1 µM, first compound 0.0316 µM) was 123%, the viability, T/C (second compound 0.1 µM, first compound 0.1 µM) was 115% and the viability, T/C (second compound 0.1 µM, first compound 0.316 µM) was 114%. The viability, T/C (second compound 0.1 µM, first compound 1 µM) was 94.9%, the viability, T/C (second compound 0.1 µM, first compound 3.16 µM) was 115% and the viability, T/C (second compound 0.1 µM, first compound 10 µM) was 58.1%. For the same compound, the viability, T/C (second compound 0.316 µM, first compound 0.0316 µM) was 106%, the viability, T/C (second compound 0.316 µM, first compound 0.1 µM) was 116% and the viability, T/C (second compound 0.316 µM, first compound 0.316 µM) was 94%. For the same compound, the viability, T/C (second compound 0.316 µM, first compound 1 µM) was 100%, the viability, T/C (second compound 0.316 µM, first compound 3.16 µM) was 86.8% and the viability, T/C (second compound 0.316 µM, first compound 10 µM) was 43.4%. It also gave a viability, T/C (second compound 1 µM, first compound 0.0316 µM) of 114%, a viability, T/C (second compound 1 µM, first compound 0.1 µM) of 108% and a viability, T/C (second compound 1 µM, first compound 0.316 µM) of 72.2%. It also gave a viability, T/C (second compound 1 µM, first compound 1 µM) of 88.6%, a viability, T/C (second compound 1 µM, first compound 3.16 µM) of 97.1% and a viability, T/C (second compound 1 µM, first compound 10 µM) of 68.2%. It also gave a viability, T/C (second compound 3.16 µM, first compound 0.0316 µM) of 101%, a viability, T/C (second compound 3.16 µM, first compound 0.1 µM) of 101% and a viability, T/C (second compound 3.16 µM, first compound 0.316 µM) of 93.9%. For the same compound, the viability, T/C (second compound 3.16 µM, first compound 1 µM) was 103%, the viability, T/C (second compound 3.16 µM, first compound 3.16 µM) was 88.9% and the viability, T/C (second compound 3.16 µM, first compound 10 µM) was 66.1%. It also gave a viability, T/C (second compound 10 µM, first compound 0.0316 µM) of 84.6%, a viability, T/C (second compound 10 µM, first compound 0.1 µM) of 88.6% and a viability, T/C (second compound 10 µM, first compound 0.316 µM) of 109%. It also gave a viability, T/C (second compound 10 µM, first compound 1 µM) of 90.8%, a viability, T/C (second compound 10 µM, first compound 3.16 µM) of 108% and a viability, T/C (second compound 10 µM, first compound 10 µM) of 61.6%.
For `COc1cccc2c1C(=O)c1c(O)c3c(c(O)c1C2=O)CC(O)(C(=O)CO)CC3OC1CC(N)C(O)C(C)O1` (centres undefined), the viability, T/C (compound 0.0316 µM) was 101% and 78% and 112%, the viability, T/C (compound 0.1 µM) was 85.8% and 98% and 78.3% and the viability, T/C (compound 0.316 µM) was 83.7% and 94.3% and 93%. For the same compound, the viability, T/C (compound 1 µM) was 108% and 71.4% and 89.4%, the viability, T/C (compound 3.16 µM) was 68.2% and 64.5% and 86% and the viability, T/C (compound 10 µM) was 57.2% and 28.9% and 43.5%. The IC50 (curve of compound) was > 10 µM and 4.82 µM and 8.46 µM.
For `Cc1cnc(CNC(=O)c2c(=O)c3ccc(N4CCCN(C)CC4)nc3n3c2sc2ccccc23)cn1`, the viability, T/C (compound 0.0316 µM) was 83.9% [middle of 12 runs], the viability, T/C (compound 0.1 µM) was 66% [middle of 12 runs] and the viability, T/C (compound 1 µM) was 53.7% [middle of 12 runs]. The viability, T/C (compound 3.16 µM) was 49.3% [middle of 12 runs] and the viability, T/C (compound 10 µM) was 46.9% [middle of 12 runs].
